Experimental findings from US20220363665A1, “QUINOLINE COMPOUNDS FOR THE TREATMENT OF AUTOIMMUNE DISEASE” (Hoffmann-La Roche Inc., priority 2019, published 2022) are described below.

Common to all, as to type: in vitro ADME
One series has as its target T1, CYP2D6 (Homo sapiens, UniProt P10635).
T1 construct: tissue BD-Gentest 452117; host or cells: human liver microsomes
The series can be described thus: CYP inhibition assay in human liver microsome, CYP2D6. The note with it: HLM, dextromethorphan substrate; for inhibition at 10 min, 10 µM: human, liver microsomes, probe dextromethorphan, read-out: CYP inhibition % @10 uM (2D6). How it is done: (§1) This is a high throughput screening assay used for assessment of reversible inhibition of CYP2C9, CYP2D6, and CYP3A4 activity of test compounds in human liver microsome (HLM) in early discovery stage.
(§2) 10 mM DMSO stock solutions of test compounds were diluted in DMSO to generate 2 mM intermediate stock solution. 250 nL of intermediate stock solution were transferred in duplicate into 3 separate 384 well microtitre plates (assay-ready plates). A mixture of HLM and each substrate was made up. 45 μL of HLM substrate mix was then transferred to each well of an assay ready plate and mixed. The negative (solvent) and positive controls (standard inhibitor for each CYP) were included in each assay ready plate. The assay ready plate was warmed to 37° C. in an incubator over 10 minutes. 5 μL pre-warmed NADPH regenerating system was added to each incubation well to start the reaction. Final incubation volume was 50 μL. The assay plate then was placed back in the 37° C. incubator. After 5 minutes incubation (10 minutes for CYP2D6), incubates were quenched by addition of 50 μL quench reagent containing internal standards (400 ng/mL 13C6-4′-OH-Diclofenac, 20 ng/mL D3-Dextrorphan and 20 ng/mL D4-1′OH-Midazolam in acetonitrile). The supernatants were collected for RapidFire/MS/MS analysis.
(§3) RapidFire online solid phase extraction/sample injection system (Agilent) coupled with API4000 triple quadrupole mass spectrometer (AB Sciex) were used for sample analysis. The mobile phase composed of acetonitrile and water supplemented with 0.1% formic acid. A C4 solid phase extraction cartridge is used for sample separation. MS detection is achieved in positive ion MRM mode.
(§4) Peak areas for substrate, metabolite and internal standard are determined using the
(§5) RapidFire integrator software (version 3.6.12009.12296). Peak area ratios (PAR) of metabolite and internal standard (stable-labelled metabolite) are then calculated. The measurement window for each experiment is then defined:
(§6) PAR (0% activity)=average PAR for all incubations containing concentrated inhibitor;
(§7) Par (100% activity)=average PAR for all incubations containing no inhibitor (DMSO controls);
(§8) % Activity (test inhibitor) =[PAR(test inhibitor)-PAR(0% activity)][PAR(100% activity)-PAR(0% activity)];
(§9) % Inhibition (test inhibitor)=100-% Activity (test inhibitor).
(§10) Percentage inhibition data are then reported, in duplicate, for the 3 CYP enzymes.
A general note: Liver microsomes are a subcellular fraction often used to study metabolism.

The target of the next series is T2, CYP3A4 (Homo sapiens, UniProt P08684).
T2 construct: tissue BD-Gentest 452117; host or cells: human liver microsomes
T2 sequence (P08684 whole entry): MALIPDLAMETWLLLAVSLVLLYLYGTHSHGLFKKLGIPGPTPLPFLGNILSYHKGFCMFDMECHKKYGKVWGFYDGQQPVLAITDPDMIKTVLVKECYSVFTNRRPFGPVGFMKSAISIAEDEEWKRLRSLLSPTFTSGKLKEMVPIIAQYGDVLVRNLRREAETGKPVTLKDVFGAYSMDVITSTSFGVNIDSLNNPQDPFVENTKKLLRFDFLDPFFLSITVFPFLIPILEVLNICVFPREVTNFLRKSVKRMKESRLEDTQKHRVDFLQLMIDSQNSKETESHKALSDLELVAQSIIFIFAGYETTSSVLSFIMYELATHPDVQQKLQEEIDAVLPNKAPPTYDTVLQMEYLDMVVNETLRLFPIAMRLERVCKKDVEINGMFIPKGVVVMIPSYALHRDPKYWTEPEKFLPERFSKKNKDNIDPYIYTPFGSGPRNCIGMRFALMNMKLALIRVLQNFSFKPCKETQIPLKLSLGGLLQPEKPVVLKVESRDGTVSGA
The series is described as follows: CYP inhibition assay in human liver microsome, CYP3A4. The note with it: HLM, midazolam substrate; for inhibition at 5 min, 10 µM: human, liver microsomes, probe midazolam, read-out: CYP inhibition % @10 uM (3A4). How it is done:
as §1, §2, §3, §4, §5, §6, §7, §8, §9, §10

A further series concerns the target T3, CYP2C9 (Homo sapiens, UniProt P11712).
T3 construct: tissue BD-Gentest 452117; host or cells: human liver microsomes
The series is described as follows: CYP inhibition assay in human liver microsome, CYP2C9. The following applies: HLM, diclofenac substrate; for inhibition at 5 min, 10 µM: human, liver microsomes, probe diclofenac, read-out: CYP inhibition % @10 uM (2C9). How it is done: as §1, §2, §3, §4, §5, §6, §7, §8, §9, §10

T1 sequence (P10635 whole entry): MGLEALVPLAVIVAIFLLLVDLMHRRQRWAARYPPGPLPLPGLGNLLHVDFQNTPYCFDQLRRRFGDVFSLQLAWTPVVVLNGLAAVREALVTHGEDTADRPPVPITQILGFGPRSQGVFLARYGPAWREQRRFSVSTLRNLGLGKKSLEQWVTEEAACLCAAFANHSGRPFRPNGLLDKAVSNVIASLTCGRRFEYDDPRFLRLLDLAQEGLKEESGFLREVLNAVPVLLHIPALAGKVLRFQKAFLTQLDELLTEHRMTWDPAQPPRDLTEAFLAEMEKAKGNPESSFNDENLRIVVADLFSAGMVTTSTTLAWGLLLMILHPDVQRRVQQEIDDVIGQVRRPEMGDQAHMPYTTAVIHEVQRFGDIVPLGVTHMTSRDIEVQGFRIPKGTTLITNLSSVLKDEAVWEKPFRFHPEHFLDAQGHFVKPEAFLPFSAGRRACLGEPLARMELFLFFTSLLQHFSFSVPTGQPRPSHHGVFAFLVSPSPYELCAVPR
T3 sequence (P11712 whole entry): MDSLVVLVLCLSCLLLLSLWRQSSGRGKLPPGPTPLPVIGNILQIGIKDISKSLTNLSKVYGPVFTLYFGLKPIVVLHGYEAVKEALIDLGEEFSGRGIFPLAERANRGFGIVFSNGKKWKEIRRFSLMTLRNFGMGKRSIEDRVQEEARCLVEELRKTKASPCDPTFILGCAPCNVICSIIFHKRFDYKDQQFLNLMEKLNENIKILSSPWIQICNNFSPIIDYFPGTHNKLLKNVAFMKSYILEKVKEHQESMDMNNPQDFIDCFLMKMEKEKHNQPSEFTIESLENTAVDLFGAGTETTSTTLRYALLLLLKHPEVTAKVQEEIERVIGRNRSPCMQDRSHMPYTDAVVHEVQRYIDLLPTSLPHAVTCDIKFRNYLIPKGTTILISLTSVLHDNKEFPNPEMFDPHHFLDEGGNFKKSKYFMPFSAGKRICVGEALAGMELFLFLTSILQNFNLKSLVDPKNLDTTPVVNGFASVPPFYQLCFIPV

For `C[C@@H]1CN(c2ccc([N+](=O)[O-])c3ncccc23)C[C@H](C(=O)NCC2CN(C)CCO2)O1` (stereo partly drawn) [Example 18, (2R,6R)-6-methyl-N-[(4-methylmorpholin-2-yl)methyl]-4-(8-nitro-5-quinolyl)morpholine-2-carboxamide], the inhibition at 10 min, 10 µM on CYP2D6 was 0%. Also, the values for the inhibition at 5 min, 10 µM at CYP3A4 and on CYP2C9 were 11% and -4%, respectively.

As for `Cc1ccc(N2C[C@@H](C)C[C@@H](N)C2)c2cccnc12` [Example 15, (3R,5S)-5-methyl-1-(8-methyl-5-quinolyl)piperidin-3-amine], the inhibition at 10 min, 10 µM at CYP2D6 is -10%. Also, the inhibition at 5 min, 10 µM at CYP3A4 was -18%; at CYP2C9, -17%.

As to `C[C@@H]1CN(c2ccc(C(F)(F)F)c3ncccc23)C[C@H](C(=O)NCC2CCCCN2C)O1` (stereo partly drawn) [Example 4, (2R,6R)-6-methyl-N-[(1-methyl-2-piperidyl)methyl]-4-[8-(trifluoromethyl)-5-quinolyl]morpholine-2-carboxamide], the inhibition at 10 min, 10 µM at CYP2D6 stood at 10%. Besides, the inhibition at 5 min, 10 µM at CYP3A4 is -14%; at CYP2C9 it was -12%.

Regarding `C[C@@H]1CN(c2ccc(C(F)(F)F)c3ncccc23)C[C@H](C(=O)NC2CC3CNCC(C3)C2)O1` (stereo partly drawn) [Example 37, (2R,6R)-N-(3-azabicyclo[3.3.1]nonan-7-yl)-6-methyl-4-[8-(trifluoromethyl)-5-quinolyl]morpholine-2-carboxamide], the inhibition at 10 min, 10 µM at CYP2D6 was determined as 3%. Besides, the inhibition at 5 min, 10 µM on CYP2C9 turned out to be 4%.

Consider `CC(NC(=O)[C@H]1CN(c2ccc(C(F)(F)F)c3ncccc23)C[C@@H](C)O1)C1CN(C)CCO1` (single isomer, unassigned) [Example 35A], for which, at CYP2D6, the “CYP inhibition % @10 uM (2D6)” value is given as 8%. Further, at CYP2C9, the inhibition at 5 min, 10 µM is 10%.

With `C[C@@H]1CN(c2ccc(C(F)(F)F)c3ncccc23)C[C@H](C(=O)NC2CNCCOC2)O1` (stereo partly drawn) [Example 14, (2R,6R)-6-methyl-N-(1,4-oxazepan-6-yl)-4-[8-(trifluoromethyl)-5-quinolyl]morpholine-2-carboxamide], the inhibition at 10 min, 10 µM on CYP2D6 was -1%. Further, the figures for the inhibition at 5 min, 10 µM on CYP3A4 and at CYP2C9 were -24% and -2%, respectively.

For `C[C@@H]1CN(c2ccc(C(F)(F)F)c3ncccc23)C[C@H](C(=O)NC2CC3CNCC32)O1` (single isomer, unassigned) [Example 49A], at CYP2D6, the “CYP inhibition % @10 uM (2D6)” value turned out to be 2%. Besides, the “CYP inhibition % @10 uM (3A4)” value at CYP3A4 (10 µM) was −25%. The “CYP inhibition % @10 uM (2C9)” value at CYP2C9 is −1%.

On to `C[C@@H]1CN(c2ccc(Br)c3ncccc23)C[C@H](C(=O)NC2CCN(C)CC2)O1` [Example 42, (2R,6R)-4-(8-bromo-5-quinolyl)-6-methyl-N-(1-methyl-4-piperidyl)morpholine-2-carboxamide], for which, on CYP2D6, the inhibition at 10 min, 10 µM is -3%. Besides, on CYP2C9, the inhibition at 5 min, 10 µM was -4%.

For the compound `C[C@@H]1CN(c2ccc(C(F)(F)F)c3ncccc23)C[C@H](C(=O)NC2CNCC(F)(F)C2)O1` (stereo partly drawn) [Example 28, (2R,6R)-N-(5,5-difluoro-3-piperidyl)-6-methyl-4-[8-(trifluoromethyl)-5-quinolyl]morpholine-2-carboxamide], on CYP2D6, the inhibition at 10 min, 10 µM worked out at 2%. In addition, the inhibition at 5 min, 10 µM on CYP3A4 is -30%; on CYP2C9 it was 23%.

Take `C[C@@H]1CN(c2ccc(C(F)(F)F)c3ncccc23)C[C@H](C(=O)NCCN2CCOCC2)O1` [Example 13, (2R,6R)-6-methyl-N-(2-morpholinoethyl)-4-[8-(trifluoromethyl)-5-quinolyl]morpholine-2-carboxamide]: the inhibition at 10 min, 10 µM on CYP2D6 is 0%. The inhibition at 5 min, 10 µM was -22% at CYP3A4 and 1% on CYP2C9.

For the compound `C[C@@H]1CN(c2ccc(C(F)(F)F)c3ncccc23)C[C@H](C(=O)N2CCC3(CCNC3)C2)O1` (stereo partly shown) [Example 36], on CYP2D6, the inhibition at 10 min, 10 µM is -10%. The inhibition at 5 min, 10 µM at CYP2C9 was found to be 1%.

Consider `C[C@@H]1CN(c2ccc([N+](=O)[O-])c3ncccc23)C[C@H](C(=O)NC2CCN(C)CC2)O1` [Example 20, (2R,6R)-6-methyl-N-(1-methyl-4-piperidyl)-4-(8-nitro-5-quinolyl)morpholine-2-carboxamide], for which the inhibition at 10 min, 10 µM at CYP2D6 is -12%. The inhibition at 5 min, 10 µM on CYP3A4 was 6%; at CYP2C9, -6%.

As to `C[C@@H]1CN(c2ccc(C(F)(F)F)c3ncccc23)C[C@H](C(=O)NCC2CN(C)CCO2)O1` (stereo partly drawn) [Example 3, (2R,6R)-6-methyl-N-[(4-methylmorpholin-2-yl)methyl]-4-[8-(trifluoromethyl)-5-quinolyl]morpholine-2-carboxamide], the inhibition at 10 min, 10 µM on CYP2D6 was determined as 16%. Besides, the inhibition at 5 min, 10 µM at CYP3A4 is -11%; on CYP2C9 it was -1%.

Consider `CC(NC(=O)[C@H]1CN(c2ccc(C(F)(F)F)c3ncccc23)C[C@@H](C)O1)C1CN(C)CCO1` (single isomer, unassigned) [Example 35B], for which the “CYP inhibition % @10 uM (2D6)” value on CYP2D6 was 2%. Also, on CYP2C9, the “CYP inhibition % @10 uM (2C9)” value was 6%.

Turning to `C[C@@H]1CN(c2ccc(C(F)(F)F)c3ncccc23)C[C@H](C(=O)N2CCC3(CCNCC3)CC2)O1` [Example 32, 3,9-diazaspiro[5.5]undecan-3-yl-[(2R,6R)-6-methyl-4-[8-(trifluoromethyl)-5-quinolyl]morpholin-2-yl]methanone], the inhibition at 10 min, 10 µM at CYP2D6 is -22%. Further, the figures for the inhibition at 5 min, 10 µM on CYP3A4 and at CYP2C9 were -2% and -8%, respectively.

Consider `C[C@@H]1CN(c2ccc(I)c3ncccc23)C[C@H](C(=O)NCC2CN(C)CCO2)O1` (stereo partly drawn) [Example 39, (2R,6R)-4-(8-iodo-5-quinolyl)-6-methyl-N-[(4-methylmorpholin-2-yl)methyl]morpholine-2-carboxamide], for which the inhibition at 10 min, 10 µM on CYP2D6 turned out to be 5%. The inhibition at 5 min, 10 µM is 5% on CYP3A4 and -7% on CYP2C9.

On to `C[C@@H]1CN(c2ccc(C(F)(F)F)c3ncccc23)C[C@H](C(=O)NCC2COCCN2C)O1` (stereo partly drawn) [Example 11, (2R,6R)-6-methyl-N-[(4-methylmorpholin-3-yl)methyl]-4-[8-(trifluoromethyl)-5-quinolyl]morpholine-2-carboxamide], for which the inhibition at 10 min, 10 µM at CYP2D6 came out at 5%. Moreover, the inhibition at 5 min, 10 µM was -28% on CYP3A4 and -4% at CYP2C9.

For `C[C@@H]1CN(c2ccc(C(F)(F)F)c3ncccc23)C[C@H](C(=O)NC2CN(C)CC23CC3)O1` (stereo partly drawn) [Example 9, (2R,6R)-6-methyl-N-(5-methyl-5-azaspiro[2.4]heptan-7-yl)-4-[8-(trifluoromethyl)-5-quinolyl]morpholine-2-carboxamide], at CYP2D6, the inhibition at 10 min, 10 µM is 6%. The inhibition at 5 min, 10 µM is -18% at CYP3A4 and 2% at CYP2C9.

For `C[C@@H]1CN(c2ccc(C(F)(F)F)c3ncccc23)C[C@H](C(=O)NC[C@@H]2CC(F)(F)CN2)O1` [Example 30], at CYP2D6, the inhibition at 10 min, 10 µM came to 20%. In addition, the inhibition at 5 min, 10 µM at CYP3A4 and at CYP2C9 was 20% in each case.

By inhibition is commonly meant the drop in the measured response relative to a control, in per cent.
